Reference: patent US20120309767A1, “PROCESS FOR THE PREPARATION OF ALPHA FORM OF IMATINIB MESYLATE” (priority 2010, published 2012)
Where two headings read alike, the source gives them in different places.

Details: 40° C. and 75 RH; for Identification by IR: vs working standard of Imatinib Mesylate (Form-α)
Description: FTIR (Fourier transform infrared spectrophotometer) • Make: SHIMADZU, IR Prestige-21 • Sample preparation: KBr pellets • 3. […] HPLC: Used Agilent 1200, VWD detector, system gradient Instrument conditions are:
A stability study was performed on the alpha form of imatinib mesylate at 40° C. and 75 RH for 3 months.

CS(=O)(=O)O.Cc1ccc(NC(=O)c2ccc(CN3CCN(C)CC3)cc2)cc1Nc1nccc(-c2cccnc2)n1 [Example 2]
Assay [by HPLC] (on anhydrous) (1M): 99.94%
Descriptions (1M): White
Water content by KF (1M): 0.55 % w/w
Identification by IR (1M): concordant
Assay [by HPLC] (on anhydrous) (2M): 99.70%
Descriptions (2M): White
Related Substance [by HPLC] Unknown impurity RRT = 0.81 (2M): 0.03 % w/w
Water content by KF (2M): 0.61 % w/w
Identification by IR (2M): concordant
Assay [by HPLC] (on anhydrous) (3M): 99.75%
Descriptions (3M): White
Related Substance [by HPLC] Known impurities: Impurity-1 (3M): 0.02 % w/w
Related Substance [by HPLC] Unknown impurity RRT = 0.81 (3M): 0.02 % w/w
Water content by KF (3M): 0.56 % w/w
Identification by IR (3M): concordant
Assay [by HPLC] (on anhydrous) (Initial): 99.98%
Descriptions (Initial): White
Related Substance [by HPLC] Total impurities (Initial): 0.04 % w/w
Related Substance [by HPLC] Unknown impurity RRT = 0.81 (Initial): 0.04 % w/w
Water content by KF (Initial): 0.52 % w/w
Identification by IR (Initial): concordant
